The text below walks through data of ChEMBL document CHEMBL5512599, “Synthetic non-toxic anti-biofilm agents as a strategy in combating bacterial resistance” (Eur J Med Chem, 2023).

What is called inhibition is the drop in the measured response relative to a control, in per cent. In general, IC50 refers to the concentration needed to halve the response being measured. As a reminder, the MIC is the smallest concentration in the dilution series that meets the test's criterion for growth inhibition.

Structures are written as SMILES.

The subject of test [1] is Staphylococcus aureus. The experiment in a line: Inhibition of Staphylococcus aureus Sortase A at 100 uM relative to control.
Test [2] has as its system Staphylococcus aureus. The experiment in a line: Antibiofilm activity against Staphylococcus aureus ATCC 25923 assessed as inhibition of biofilm formation. The format is functional, organism-based.
Test [3] deals with T1, Transcriptional regulator MvfR (Pseudomonas aeruginosa PA14, UniProt A0A072ZLE6).
T1 sequence (A0A072ZLE6 whole entry): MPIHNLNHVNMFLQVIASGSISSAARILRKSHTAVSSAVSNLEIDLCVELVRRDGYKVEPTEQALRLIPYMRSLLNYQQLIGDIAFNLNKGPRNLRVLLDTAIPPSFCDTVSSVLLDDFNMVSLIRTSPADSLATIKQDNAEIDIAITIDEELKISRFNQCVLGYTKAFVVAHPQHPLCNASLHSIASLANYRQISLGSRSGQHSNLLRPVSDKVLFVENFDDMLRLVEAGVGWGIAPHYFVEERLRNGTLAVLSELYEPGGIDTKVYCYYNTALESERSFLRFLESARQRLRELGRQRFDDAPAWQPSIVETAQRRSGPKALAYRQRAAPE
The experiment in a line: Antagonist activity at PqsR in wild-type Pseudomonas aeruginosa PA14 assessed as reduction in AQ level at 0.2 uM by LCMS/MS analysis.

The target in test [4] is T1, Transcriptional regulator MvfR. The experiment in a line: Antagonist activity at PqsR in wild-type Pseudomonas aeruginosa PAO1 assessed as reduction in AQ level at 0.2 uM by LCMS/MS analysis.
Test [5] has as its system Pseudomonas aeruginosa. The experiment in a line: Antibiofilm activity against Pseudomonas aeruginosa PAO1 assessed as inhibition of biofilm formation incubated for 24 hrs by crystal violet staining based assay. Conditions: PAO1, 24 h. The format is functional, organism-based.
The nature of test [6]: Inhibition of quorum sensing system in Pseudomonas aeruginosa PA14 assessed as inhibition of pyocyanin production.
The subject of test [7] is Pseudomonas aeruginosa. The experiment in a line: Antibiofilm activity against wild type Pseudomonas aeruginosa PAO1 assessed as inhibition of biofilm formation at 100 uM incubated for 24 hrs by crystal violet staining based analysis relative to control. The format is functional. Also noted: scale not given: the % may be the effect or the level left.
Test [8] deals with Pseudomonas aeruginosa. Put plainly: Antibiofilm activity against Pseudomonas aeruginosa PAO1 assessed as inhibition of biofilm formation at 10 microg/ml relative to control. The format is functional. Further details: scale not given: the % may be the effect or the level left. Conditions: dose 10 µg/ml.
Test [9] relates to Pseudomonas aeruginosa. Put plainly: Antimicrobial activity against Pseudomonas aeruginosa PAO1 assessed as inhibition of microbial growth by microdilution broth method. The format is functional.
Test [10] deals with Staphylococcus aureus. Put plainly: Antimicrobial activity against methicillin-resistant Staphylococcus aureus ATCC 43866 assessed as reduction in microbial growth incubated for 24 hrs by broth microdilution method. Conditions: ATCC 43866, 24 h. The format is functional, organism-based.
For test [11], the system named is Staphylococcus aureus. The experiment in a line: Antimicrobial activity against methicillin-sensitive Staphylococcus aureus ATCC 35556 assessed as reduction in microbial growth incubated for 24 hrs by broth microdilution method. It counts as functional, organism-based. Conditions: ATCC 35556, 24 h. In general terms: Dilution methods test growth across graded concentrations, often in twofold steps.

Test [12] has as its system Pseudomonas aeruginosa. The experiment in a line: Anti-motility activity against Pseudomonas aeruginosa PAO1 assessed as reduction in swarming at 100 ug/ml incubated for 16 hrs by crystal violet staining analysis. Also noted: scale not given: the % may be the effect or the level left. It counts as functional. Conditions: dose 100 µg/ml.
Test [13] has as its system Acinetobacter baumannii. Put plainly: Antibiofilm activity against Acinetobacter baumannii ATCC 19606 assessed as inhibition of biofilm formation at 66.5 ug/ml by crystal violet assay. Conditions: dose 66.5 µg/ml. Further details: scale not given: the % may be the effect or the level left. It counts as functional.
Test [14] relates to Pseudomonas aeruginosa. Put plainly: Anti-motility activity against Pseudomonas aeruginosa PAO1 assessed as reduction in swarming at 50 ug/ml incubated for 16 hrs by crystal violet staining analysis. It counts as functional. Further details: scale not given: the % may be the effect or the level left. Conditions: dose 50 µg/ml.
The subject of test [15] is Pseudomonas aeruginosa. Put plainly: Antibacterial activity against Pseudomonas aeruginosa 27853 assessed as inhibition of bacterial growth at 3.2 microg/ml incubated for 24 hrs by absorbance based microplate reader analysis relative to control. Conditions: dose 3.2 µg/ml. Also noted: scale not given: the % may be the effect or the level left. It counts as functional.

Test [16] relates to Pseudomonas aeruginosa. Put plainly: Antibiofilm activity against Pseudomonas aeruginosa ATCC 27853 assessed as reduction in biofilm formation at 1/6 times of MIC after 24 hrs by crystal violet staining based assay. Further details: scale not given: the % may be the effect or the level left. It counts as functional.
Test [17] has as its system Pseudomonas aeruginosa. Put plainly: Antibiofilm activity against Pseudomonas aeruginosa PAO1 assessed as inhibition of biofilm formation incubated at 50 uM incubated for 24 hrs by crystal violet staining based analysis relative to control. It counts as functional. Further details: scale not given: the % may be the effect or the level left.
Test [18] deals with Staphylococcus aureus. Put plainly: Antibiofilm activity against Staphylococcus aureus ATCC 25923 at 3.1 ug/ml measured after 24 hrs by crystal violet staining based analysis relative to control. The format is functional. Conditions: dose 3.1 µg/ml.
In test [19] the test system is Staphylococcus aureus. Put plainly: Antibiofilm activity against Staphylococcus aureus BAA 1708 at 3.1 ug/ml measured after 24 hrs by crystal violet staining based analysis relative to control. The format is functional. Conditions: dose 3.1 µg/ml.
Test [20] has as its system Staphylococcus aureus. Put plainly: Antibiofilm activity against Staphylococcus aureus ATCC 29213 at 3.1 ug/ml measured after 24 hrs by crystal violet staining based analysis relative to control. It counts as functional. Conditions: dose 3.1 µg/ml.
Test [21] has as its system Pseudomonas aeruginosa. The experiment in a line: Antibiofilm activity against Pseudomonas aeruginosa PAO1 assessed as inhibition of biofilm formation at 100 microg/ml relative to control. It counts as functional. Also noted: scale not given: the % may be the effect or the level left. Conditions: dose 100 µg/ml.

On to `CC(C)(C)OC(=O)NCCn1cc(-c2nc(-c3c[nH]c4ncccc34)cs2)c2ccccc21`, for which, in test [1], the inhibition is 47.8%. In addition, in test [2], the IC50 turned out to be 12 µM.

On to `O=CN1N=C(c2ccccc2)CC1c1cccc(Nc2ccnc3cc(Cl)ccc23)c1` (stereo unspecified), for which the results for the IC50 in [3] and in [4] were 2300 nM and 12.4 µM, respectively.

For `Cc1cccc(/C=C2/C(c3cccc(C)c3)=CC(=O)N2Cc2ccccc2)c1`, the IC50 in [5] turned out to be 260 nM; in test [6], 280 nM.

As for `Nc1nc2ccc(/C=C/c3ccccc3)cc2[nH]1`, in test [7], the Activity was determined as 56%.

Take `O=C(/C=C/c1ccc(O)c(O)c1)OCCc1ccc(Br)cc1`: the Activity in test [8] came to 33.69%. Moreover, the MIC in test [9] is over 512 µM.

With `Cn1c(C(=O)N/N=C/c2ccc(Oc3c(Cl)cccc3Cl)cc2)cc(Br)c1Br`, the IC50 was 0.78 µg/mL in test [10] and 0.39 µg/mL in test [11].

As to `O=C(/C=C/c1ccc(C(F)(F)F)cc1)c1ccccc1O`, the Activity in [12] turned out to be 31.74%; in test [13], 56.8%; in test [14], 21.91%.

Regarding `CC[C@H]1OC(=O)[C@H](C)[C@@H](O[C@H]2C[C@@](C)(OC)[C@@H](O)[C@H](C)O2)[C@H](C)[C@@H](O[C@@H]2O[C@H](C)C[C@H](N(C)C)[C@H]2O)[C@](C)(OC)C[C@@H](C)C(=O)[C@H](C)[C@@H](O)[C@]1(C)O` [CLARITHROMYCIN], in test [15], the Activity was found to be 29.11%.

In the case of `COc1ccc(CC(=O)OC2OC(=O)C(Br)=C2Br)cc1OC` (stereo unspecified), the Activity in test [16] worked out at 63%.

Take `O=C(CCCCCCCCCN=C=S)CC(=O)N[C@H]1CCOC1=O`: in test [17], the Activity was determined as 50%.

Consider `COc1ccc(CC(=O)[N-]c2c([N+]#N)c(C)nn2C)cc1`, for which the Activity is given as 38% in test [18], 25% in [19] and 45.7% in test [20].

Turning to `COc1ccccc1/C=C/C(=O)c1ccccc1O`, in test [21], the Activity worked out at 57%.
